Test system: patients with metastatic castration-sensitive prostate cancer (mCSPC)
Conditions: Grade ≥3

SMILES: CNC(=O)c1ccc(N2C(=S)N(c3cnc(C#N)c(C(F)(F)F)c3)C(=O)C23CCC3)cc1F [Apalutamide, 4-[7-(6-cyano-5-trifluoromethylpyridin-3-yl)-8-oxo-6-thioxo-5,7-diazaspiro[3.4]oct-5-yl]-2-fluoro-N-methylbenzamide]
- AE leading to discontinuation: Lip swelling: 0 no. (%)
- AE leading to discontinuation: Loss of consciousness: 0 no. (%)
- AE leading to discontinuation: New cancer neoplasm: 5 (1.0) no. (%)
- AE leading to discontinuation: Parkinson's disease: 1 (0.2) no. (%)
- AE leading to discontinuation: Pleural effusion: 0 no. (%)
- AE leading to discontinuation: Pulmonary edema: 0 no. (%)
- AE leading to discontinuation: Pulmonary embolism: 1 (0.2) no. (%)
- AE leading to discontinuation: Radiculopathy: 1 (0.2) no. (%)
- AE leading to discontinuation: Rash (grouped term): 7 (1.3) no. (%)
- AE leading to discontinuation: Respiratory failure: 0 no. (%)
- AE leading to discontinuation: Seizure: 1 (0.2) no. (%)
- AE leading to discontinuation: Subdural hemorrhage: 0 no. (%)
- AE leading to discontinuation: Sudden cardiac death: 1 (0.2) no. (%)
- AE leading to discontinuation: Sudden death: 0 no. (%)
- AE leading to dose interruption: Anxiety: 0 no. (%)
- AE leading to dose interruption: Arthralgia: 0 no. (%)
- AE leading to dose interruption: Aspartate aminotransferase or alanine aminotransferase increased: 4 (0.8) no. (%)
- AE leading to dose interruption: Asthenia: 3 (0.6) no. (%)
- AE leading to dose interruption: Atrial fibrillation: 1 (0.2) no. (%)
- AE leading to dose interruption: Bile duct obstruction: 0 no. (%)
- AE leading to dose interruption: Blood alkaline phosphatase increased: 1 (0.2) no. (%)
- AE leading to dose interruption: Cardiac amyloidosis: 0 no. (%)
- AE leading to dose interruption: Cardiac disorder: 0 no. (%)
- AE leading to dose interruption: Cardiac failure: 0 no. (%)
- AE leading to dose interruption: Cardiac failure congestive: 1 (0.2) no. (%)
- AE leading to dose interruption: Cerebrovascular accident: 1 (0.2) no. (%)
- AE leading to dose interruption: Cheilitis: 0 no. (%)
- AE leading to dose interruption: Chronic hepatitis: 0 no. (%)
- AE leading to dose interruption: Chronic obstructive pulmonary disease: 2 (0.4) no. (%)
- AE leading to dose interruption: Cognitive disorder: 1 (0.2) no. (%)
- AE leading to dose interruption: Confusional state: 1 (0.2) no. (%)
- AE leading to dose interruption: Constipation: 0 no. (%)
- AE leading to dose interruption: Decreased appetite: 1 (0.2) no. (%)
- AE leading to dose interruption: Dehydration: 0 no. (%)
- AE leading to dose interruption: Depression: 0 no. (%)
- AE leading to dose interruption: Diabetes mellitus: 1 (0.2) no. (%)
- AE leading to dose interruption: Diarrhea: 0 no. (%)
- AE leading to dose interruption: Diplegia: 0 no. (%)
- AE leading to dose interruption: Dizziness: 0 no. (%)
- AE leading to dose interruption: Dyspnea: 0 no. (%)
- AE leading to dose interruption: Dysuria: 1 (0.2) no. (%)
- AE leading to dose interruption: Edema: 0 no. (%)
- AE leading to dose interruption: Eyelid edema: 0 no. (%)
- AE leading to dose interruption: Facial edema: 0 no. (%)
- AE leading to dose interruption: Fall: 1 (0.2) no. (%)
- AE leading to dose interruption: Fatigue: 1 (0.2) no. (%)
- AE leading to dose interruption: Febrile neutropenia: 1 (0.2) no. (%)
- AE leading to dose interruption: Gamma-glutamyltransferase increased: 1 (0.2) no. (%)
- AE leading to dose interruption: Gastric ulcer perforation: 1 (0.2) no. (%)
- AE leading to dose interruption: Gastritis: 0 no. (%)
- AE leading to dose interruption: General physical health deterioration: 1 (0.2) no. (%)
- AE leading to dose interruption: Hallucination: 0 no. (%)
- AE leading to dose interruption: Headache: 0 no. (%)
- AE leading to dose interruption: Hematoma: 1 (0.2) no. (%)
- AE leading to dose interruption: Hematuria: 2 (0.4) no. (%)
- AE leading to dose interruption: Hemorrhage intracranial: 1 (0.2) no. (%)
- AE leading to dose interruption: Hemorrhagic erosive gastritis: 1 (0.2) no. (%)
- AE leading to dose interruption: Hepatic cirrhosis: 0 no. (%)
- AE leading to dose interruption: Hepatic failure: 0 no. (%)
- AE leading to dose interruption: Hip fracture: 1 (0.2) no. (%)
- AE leading to dose interruption: Hot flush: 0 no. (%)
- AE leading to dose interruption: Hydronephrosis: 0 no. (%)
- AE leading to dose interruption: Hyperbilirubinemia: 1 (0.2) no. (%)
- AE leading to dose interruption: Hypersensitivity: 0 no. (%)
- AE leading to dose interruption: Hypertension: 6 (1.1) no. (%)
- AE leading to dose interruption: Hypertriglyceridemia: 2 (0.4) no. (%)
- AE leading to dose interruption: Hypokalemia: 1 (0.2) no. (%)
- AE leading to dose interruption: Hyponatremia: 1 (0.2) no. (%)
- AE leading to dose interruption: Infections: 4 (0.8) no. (%)
- AE leading to dose interruption: Influenza-like illness: 0 no. (%)
- AE leading to dose interruption: Insomnia: 0 no. (%)
- AE leading to dose interruption: Ischemic cardiac events: 1 (0.2) no. (%)
- AE leading to dose interruption: Large intestinal ulcer perforation: 1 (0.2) no. (%)
- AE leading to dose interruption: Mental status changes: 0 no. (%)
- AE leading to dose interruption: Muscular weakness: 0 no. (%)
- AE leading to dose interruption: Musculoskeletal stiffness: 0 no. (%)
- AE leading to dose interruption: Nausea: 0 no. (%)
- AE leading to dose interruption: Neutropenia: 2 (0.4) no. (%)
- AE leading to dose interruption: New cancer neoplasm: 1 (0.2) no. (%)
- AE leading to dose interruption: Osteoarthritis: 0 no. (%)
- AE leading to dose interruption: Osteoporosis: 0 no. (%)
- AE leading to dose interruption: Pain (grouped term): 4 (0.8) no. (%)
- AE leading to dose interruption: Pathological fracture: 0 no. (%)
- AE leading to dose interruption: Peripheral edema: 0 no. (%)
- AE leading to dose interruption: Peripheral swelling: 0 no. (%)
- AE leading to dose interruption: Proctalgia: 0 no. (%)
- AE leading to dose interruption: Pyrexia: 0 no. (%)
- AE leading to dose interruption: Rash (grouped term): 20 (3.8) no. (%)
- AE leading to dose interruption: Renal injury: 0 no. (%)
- AE leading to dose interruption: Rheumatoid arthritis: 1 (0.2) no. (%)
- AE leading to dose interruption: Seizure: 0 no. (%)
- AE leading to dose interruption: Spinal cord compression: 1 (0.2) no. (%)
- AE leading to dose interruption: Stomatitis: 0 no. (%)
- AE leading to dose interruption: Subarachnoid hematoma: 1 (0.2) no. (%)
- AE leading to dose interruption: Subarachnoid hemorrhage: 0 no. (%)
- AE leading to dose interruption: Subdural hemorrhage: 0 no. (%)
